Test results published in ChEMBL document CHEMBL3351403, “Lead identification of benzimidazolone and azabenzimidazolone arylsulfonamides as CC-chemokine receptor 4 (CCR4) antagonists” (Bioorg Med Chem, 2014).

assay: Lipophilicity, log D of the compound at pH 7.4 by chromatography; format: physicochemical; details: buffer

| chromatographic logD | Structure (SMILES) |
| --- | --- |
| 3.2 | CCCn1c(=O)[nH]c2cc(NS(=O)(=O)c3cccc(Cl)c3Cl)c(OC)cc21 |
| 2.6 | COc1cc2c(cc1NS(=O)(=O)c1cccc(Cl)c1Cl)[nH]c(=O)n2CCN(C)C |
| 2.4 | COc1cc2[nH]c(=O)n(CC(N)=O)c2cc1NS(=O)(=O)c1cccc(Cl)c1Cl |
| 4.6 | COc1cc2c(cc1NS(=O)(=O)c1cccc(Cl)c1Cl)[nH]c(=O)n2C1COC1 |
| 5.3 | COc1cccc2c1c(NS(=O)(=O)c1cccc(Cl)c1Cl)nn2C |
| 3.2 | COc1cc2[nH]c(=O)[nH]c2cc1NS(=O)(=O)c1cccc(Cl)c1Cl |
| 2.4 | COc1cc2[nH]c(=O)[nH]c2nc1NS(=O)(=O)c1cccc(Cl)c1Cl |
| 2.5 | COc1cc2c(cc1NS(=O)(=O)c1cccc(Cl)c1Cl)[nH]c(=O)n2CC(N)=O |
| 4.4 | COc1cc2c(cc1NS(=O)(=O)c1cccc(Cl)c1Cl)n(C)c(=O)n2C |
| 3.8 | COc1cc2c(cc1NS(=O)(=O)c1cccc(Cl)c1Cl)[nH]c(=O)n2C |
| 3 | COc1cc2c(cc1NS(=O)(=O)c1cccc(Cl)c1Cl)[nH]c(=O)n2C1CNC1 |
| 3.7 | COc1cc2c(cc1NS(=O)(=O)c1cccc(Cl)c1Cl)[nH]c(=O)n2C1CN(C(C)=O)C1 |
| 2.1 | COc1cc2c(cc1NS(=O)(=O)c1cccc(Cl)c1Cl)[nH]c(=O)n2C(CO)CO |
| 3.7 | COc1cc2[nH]c(=O)n(C)c2cc1NS(=O)(=O)c1cccc(Cl)c1Cl |
| 4.7 | COc1cc2c(cc1NS(=O)(=O)c1cccc(Cl)c1Cl)[nH]c(=O)n2C(C)C |
| 3.2 | COc1nc2[nH]c(=O)[nH]c2cc1NS(=O)(=O)c1cccc(Cl)c1Cl |
